# Results as given in patent US20110015120A1, “Pharmaceutical and cosmetic compositions including lactoferrin, ciclopirox, etidronic acid” (VALETUDO S . r . l ., priority 2009, published 2011).
# “And” between values parts separate entries of the source, which are not always exact repeats. Equal values may be shown once. “Also recorded” adds a separate entry of the source.
# Tested on: MALASSEZIA GLOBOSA
# Test: Inhibition of Malassezia globosa growth, colony count (UFC/ml) on Dixon's Agar
# Assay type: cell-based
# Settings: for dil 10X colony count: 200 μl of suspension diluted 10X on Petri dish; for dil 10X colony count / X50 (calculation made based on the dilution): three replicates; for AVERAGE: average of three replicates; for % reduction of Malassezia globosa cells growth (% increase of antimycotic activity): compared to CICLOPIROXOLAMINE alone; for X50 (calculation made based on the dilution): dil 10X count x50
# Description: To assess the capacity of the LACTOFERRIN to enhance the antimycotic action of the CIPROPIROXOLAMIN, a suspension of a MALASSEZIA GLOBOSA STRAIN is inoculated on a specific culture medium and the capacity of the compounds to inhibit the mycotic growth is observed, by counting of the UFC/ml.
# As first approach, the two compounds are tested at the concentration of 1:500 and, subsequently, diluted in culture medium at 2 decreasing concentrations (10× and 100×) in order to visualize the individual activities. Then in order to evaluate the capacity of the LACTOFERRIN to increase the antimycotic effect of the CICLOPIROXOLAMIN, the same test was carried out on the mix of the two active ingredients at different ratios (1:2 and 1:5).
# Each test was performed three times and the incubation times were 1 and 4 hours respectively.
# Based on the results obtained, the best dilution for the execution of the tests was the 10× dilution and both the incubation times (1 hour and 4 hours) were taken into consideration since the experimental conditions permitted an accurate count to be carried out of the colonies on the Petri dishes.
# The microorganism used is MALASSEZIA GLOBOSA.
# The microorganisms were cultured in specific culture medium (Dixon's Agar) until reaching a concentration of approximately […] per ml. Aliquots of 1 ml of this inoculum were then taken to which were added respectively: • Ciclopiroxolamine 1:500 • Lactoferrin 1:500 • Mixture 1:2 Ciclopiroxolamine:lactoferrin • Mixture 1:5 Ciclopiroxolamine:lactoferrin
# As positive control, the untreated inoculum was used (MALASSEZIA and diluting liquid), as negative controls the two active ingredients in diluting liquid.
# After incubations of 1 hour and 4 hours respectively, aliquots of 200 μl of each suspension were spread on Petri dishes.
# For each treatment, the test was carried out three times and for 3 different dilutions (non diluted suspension (TQ), dilution 10× and dilution 100×).
# The 54 dishes obtained were then examined, after incubation of 5-6 days and the microbial load of each specimen was calculated (UFC/ml).
# The % increase of the antimycotic property corresponds to the % reduction of the growth of Malassezia Globosa
smiles,measurement,setting,value
"Cc1cc(C2CCCCC2)n(O)c(=O)c1 [CICLOPIROXOLAMINE, Ciclopirox Olamine]",reduction in the growth of Malassezia Globosa (in words),after four hours of incubation,marked reduction
same,reduction in the growth of Malassezia Globosa (in words),after one hour of incubation,marked reduction
same,antimycotic activity towards Malassezia Globosa (in words),overall statement,decidedly more effective in reducing the growth compared to the LACTOFERRIN; also recorded: marked antimycotic activity
same,Log (AVERAGE),period of incubation 1 hour,3.985
same,dil 10X colony count,period of incubation 1 hour,208 and 170 and 202
same,AVERAGE,period of incubation 1 hour,9666.667 UFC/ml
same,% reduction of Malassezia globosa cells growth (% increase of antimycotic activity),period of incubation 1 hour,0%
same,X50 (calculation made based on the dilution),period of incubation 1 hour,10400 UFC/ml and 8500 UFC/ml and 10100 UFC/ml
same,Log (AVERAGE),period of incubation 4 hour,3.209
same,dil 10X colony count,period of incubation 4 hour,38 and 34 and 25
same,AVERAGE,period of incubation 4 hour,1616.667 UFC/ml
same,% reduction of Malassezia globosa cells growth (% increase of antimycotic activity),period of incubation 4 hour,0%
same,X50 (calculation made based on the dilution),period of incubation 4 hour,1900 UFC/ml and 1700 UFC/ml and 1250 UFC/ml
